# pIC50: −log10 of the molar value.
# Assays:
# Format in all cases: biochemical
# PI3Kalpha = target: T1, PI3Kalpha (Homo sapiens, UniProt P42336); experiment: Human PI3Kα enzyme assay (HTRF); conditions: for inhibition at 1.11 µM: read-out: PI3Kalpha % inh
# T1 construct: His (N); host or cells: SF9 insect cells (baculovirus)
# Summary of the method: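 His-tagged p110α co-expressed with p85 in Sf9 cells was reacted for 30 min at room temperature in pH 7.00 Hepes buffer with 10 mM MgCl2. Addition solutions held 25 uM ATP, 3.5 uM di-C8 PI(4,5)P2 and 0.4875 nM enzyme. The reaction was quenched with EDTA/biotin-PIP3 and detected by HTRF (GST-GRP-1 PH domain, streptavidin-XL, Eu anti-GST) after 1 h.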
# PI3Kbeta = target: T2, PI3Kbeta (Homo sapiens, UniProt P42338); experiment: Human PI3K beta enzyme assay (HTRF, as for PI3K alpha); conditions: for pIC50: read-out: IC50 (inhibit PI3Kbeta); for inhibition at 1.11 µM: read-out: PI3Kbeta % inh
# T2 construct: His (N); host or cells: SF9 insect cells (baculovirus)
# Summary of the method: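 N-His p110β/δ co-expressed with untagged p85 in Sf9, p110γ alone. Enzyme 5.25 nM (β), 0.75 nM (δ), 5 nM (γ), with ATP 25 uM and di-C8 PI(4,5)P2 3.5 uM (added-solution levels), pH 7.00, 30 min RT. HTRF read-out: biotin-PIP3, GST-GRP-1 PH domain, Eu anti-GST, streptavidin-XL.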
# PI3Kgamma = target: T3, PI3Kgamma (Homo sapiens, UniProt P48736); experiment: Human PI3K gamma enzyme assay (HTRF, as for PI3K alpha); conditions: for inhibition at 1.11 µM: read-out: PI3Kgamma % inh
# T3 construct: His (N); host or cells: SF9 insect cells (baculovirus)
# Text: (§1) The catalytic subunits of PI3Ks are cloned into either pDEST8(p110 alpha) or pDEST10(p110beta, p110delta, and p110gamma) as N-terminal His tagged fusion proteins using the Gateway system (Invitrogen, catalog#11804-010 for pDEST8 and 11806-015 for pDEST10). The sequences are verified before recombinant protein expression using the Baculovirus Expression System with Gateway® Technology. The accession numbers for the subunits are as follows:
# (§2) The regulatory subunits of PI3Ks are cloned into pDEST8 as un-tagged protein using the Gateway system (Catalog#11804-010). The sequences are verified before recombinant protein expression using the Baculovirus Expression System with Gateway® Technology. The accession numbers for the subunits are as follows:
# (§3) For expression of the p110 complexes, the p85 (MOI of 4) is co-infected with p110 alpha, beta, and delta respectively (1MOI) in SF9 cells and harvested at 60 hours post co-infection. P110 gamma was infected at 1 MOI and harvested at 60 hours post infection.
# (§4) For purification, PI3Ks are purified by Ni-NTA Agarose (Qiagen #30250) followed by Mono Q 10/100 GL (Ge Healthcare #17-5167-01). VPS34 is purified by Glutathione Sepharose 4 Fast Flow (GE Healthcare #17-5132-03) followed by HiTrap Q (GE Healthcare #17-1153-01).
# (§5) 0.5 uL compounds in DMSO are added to wells of a 384 well microtitre plate (Corning 3575). At room temperature: 10 ul PI3K reaction buffer (50 mM Hepes, 5 mM DTT, 150 mM NaCl, 10 mM beta-glycerophosphate, 10 mM MgCl2, 0.25 mM sodium cholate and 0.001% CHAPS, pH 7.00) containing ATP (25 uM, Promega) is added followed immediately by 10 ul PI3K reaction buffer containing di-C8 PI(4,5)P2 (3.5 uM, CellSignals) and PI3Kalpha (0.4875 nM, Millennium Protein Sciences Group) and the mixture is incubated with shaking at room temperature for 30 minutes. Then 5 ul PI3K stop mix (50 mM Hepes, 5 mM DTT, 150 mM NaCl, 0.01% Tween-20, 15 mM EDTA and 25 nM biotin-PI(3,4,5)P3 (Echelon) is added to quench the reaction followed immediately by addition of 5 ul HTRF detection mix (50 mM Hepes, 5 mM DTT, 150 mM NaCl, 0.01% Tween-20, 40 mM KF, 10 nM GST:GRP-1 PH domain (Millennium Protein Sciences Group), 15 nM Streptavidin-XL (CisBio) and 0.375 nM anti-GST Eu++ antibody (CisBio) at pH 7.00). The plates are then incubated for 1 hour at room temperature with shaking and then read on a BMG PheraStar Plus reader.
# (§6) 2) Human PI3K beta, delta and gamma isoforms are tested using the procedure described for PI3K alpha above but with the following changes: PI3K beta (5.25 nM), PI3K delta (0.75 nM) and PI3K gamma (5 nM). All isoforms supplied by Millennium Protein Science Group.
# PI3Kdelta = target: T4, PI3Kdelta (Homo sapiens, UniProt O00329); experiment: Human PI3K delta enzyme assay (HTRF, as for PI3K alpha); conditions: for inhibition at 1.11 µM: read-out: PI3Kdelta % inh
# T4 construct: His (N); host or cells: SF9 insect cells (baculovirus)
# Text: as §1, §2, §3, §4, §5, §6
# VPS34 = target: T5, VPS34 (Homo sapiens, UniProt Q8NEB9); experiment: Human VPS34 enzyme assay (Adapta Universal Kinase Assay); conditions: for inhibition at 1.11 µM: 1 h, read-out: VPS34 % ihn
# T5 construct: GST (N); host or cells: SF9 insect cells (baculovirus)
# Experimental: VPS34 (accession number GB:BC033004) is cloned into pDEST20-Thombin as N-terminal GST tagged fusion proteins using the Gateway system (Invitrogen, catalog#11804-013). The sequences are verified before recombinant protein expression using the Baculovirus Expression System with Gateway® Technology.
# For expression VPS34 was infected at 1MOI in SF9 cells and harvested 72 hours post infection.
# For purification, VPS34 is purified by Glutathione Sepharose 4 Fast Flow (GE Healthcare #17-5132-03) followed by HiTrap Q (GE Healthcare #17-1153-01).
# 3) VPS34 is assayed using Adapta™ Universal Kinase Assay Kit (Invitrogen).
# 4) Human VPS34 enzyme assay method
# […] compounds in DMSO are added to wells of a 384 well microtitre plate (Greiner 780076). At room temperature: 5 ul VPS34 reaction buffer (Invitrogen Assay Buffer Q (diluted 1 in 5 with nanopure water) plus 2 mM DTT and 2 mM MnCl2) containing ATP (20 uM, Promega) and 200 uM PI-PS substrate (Invitrogen PV5122) is added followed immediately by 5 ul VPS34 reaction buffer (as above) containing VPS34 (5 nM, Millennium Protein Sciences Group) and the mixture is incubated with shaking at room temperature for 1 hour. Then 5 ul VPS34 stop-detect mix (as per Invitrogen Adapta Assay kit (PV5009) instructions (contains kinase quench buffer, TR-FRET buffer, Adapta Eu anti-ADP antibody and Alexa Fluor 647 ADP tracer)) is added to quench the reaction. The plates are then incubated for 30 minutes at room temperature with shaking and then read on a BMG PheraStar Plus reader.
# T5 sequence (Q8NEB9 whole entry): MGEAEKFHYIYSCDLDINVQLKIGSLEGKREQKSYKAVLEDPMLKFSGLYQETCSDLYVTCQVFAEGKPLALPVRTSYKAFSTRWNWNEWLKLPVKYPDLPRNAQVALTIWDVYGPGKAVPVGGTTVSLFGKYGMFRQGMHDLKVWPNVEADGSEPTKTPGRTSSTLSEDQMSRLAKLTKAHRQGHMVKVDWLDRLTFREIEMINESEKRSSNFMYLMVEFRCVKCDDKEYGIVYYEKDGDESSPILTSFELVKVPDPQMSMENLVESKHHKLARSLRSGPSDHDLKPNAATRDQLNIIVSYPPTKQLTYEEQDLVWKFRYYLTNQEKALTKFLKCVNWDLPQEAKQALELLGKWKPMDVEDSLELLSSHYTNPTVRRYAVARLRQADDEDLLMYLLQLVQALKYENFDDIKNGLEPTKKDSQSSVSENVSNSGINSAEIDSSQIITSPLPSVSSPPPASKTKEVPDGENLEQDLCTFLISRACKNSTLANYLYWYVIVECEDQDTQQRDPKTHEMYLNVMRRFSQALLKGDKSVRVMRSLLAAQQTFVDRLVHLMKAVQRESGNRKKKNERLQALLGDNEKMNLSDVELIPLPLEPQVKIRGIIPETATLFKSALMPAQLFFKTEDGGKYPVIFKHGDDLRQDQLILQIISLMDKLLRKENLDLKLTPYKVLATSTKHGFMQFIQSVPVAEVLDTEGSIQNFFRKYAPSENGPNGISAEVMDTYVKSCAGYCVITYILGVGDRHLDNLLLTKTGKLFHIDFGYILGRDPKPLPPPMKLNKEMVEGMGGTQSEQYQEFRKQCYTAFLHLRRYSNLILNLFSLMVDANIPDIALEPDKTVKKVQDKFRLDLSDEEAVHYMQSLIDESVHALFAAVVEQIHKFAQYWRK
# T2 sequence (P42338 whole entry): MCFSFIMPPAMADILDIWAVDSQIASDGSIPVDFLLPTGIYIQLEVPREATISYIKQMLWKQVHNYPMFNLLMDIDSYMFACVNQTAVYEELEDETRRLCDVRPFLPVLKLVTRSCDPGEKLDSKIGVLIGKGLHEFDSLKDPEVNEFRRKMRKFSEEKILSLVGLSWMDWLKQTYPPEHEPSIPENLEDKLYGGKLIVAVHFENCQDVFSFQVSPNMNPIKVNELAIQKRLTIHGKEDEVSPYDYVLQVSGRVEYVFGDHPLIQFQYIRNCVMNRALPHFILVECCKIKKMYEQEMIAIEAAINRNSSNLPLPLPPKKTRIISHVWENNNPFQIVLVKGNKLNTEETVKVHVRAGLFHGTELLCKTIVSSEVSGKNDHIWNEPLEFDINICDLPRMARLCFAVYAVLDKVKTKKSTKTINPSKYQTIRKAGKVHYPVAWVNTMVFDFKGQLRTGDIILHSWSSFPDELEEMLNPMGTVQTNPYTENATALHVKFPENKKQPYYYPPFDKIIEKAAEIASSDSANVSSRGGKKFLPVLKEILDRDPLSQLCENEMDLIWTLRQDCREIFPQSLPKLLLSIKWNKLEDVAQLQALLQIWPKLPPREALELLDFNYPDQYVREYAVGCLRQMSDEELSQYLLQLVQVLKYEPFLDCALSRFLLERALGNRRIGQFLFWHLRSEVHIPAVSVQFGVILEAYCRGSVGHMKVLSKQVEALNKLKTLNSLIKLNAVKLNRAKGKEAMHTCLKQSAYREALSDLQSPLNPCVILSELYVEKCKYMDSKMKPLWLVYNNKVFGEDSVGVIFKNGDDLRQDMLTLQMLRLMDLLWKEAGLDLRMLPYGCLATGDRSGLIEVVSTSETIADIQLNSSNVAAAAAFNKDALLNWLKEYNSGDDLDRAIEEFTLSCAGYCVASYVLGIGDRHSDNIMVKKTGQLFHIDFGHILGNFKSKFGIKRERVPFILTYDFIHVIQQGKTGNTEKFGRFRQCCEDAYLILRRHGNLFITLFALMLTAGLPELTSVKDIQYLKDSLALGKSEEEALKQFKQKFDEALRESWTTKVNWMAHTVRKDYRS
# T2 sequence (P27986 whole entry partner): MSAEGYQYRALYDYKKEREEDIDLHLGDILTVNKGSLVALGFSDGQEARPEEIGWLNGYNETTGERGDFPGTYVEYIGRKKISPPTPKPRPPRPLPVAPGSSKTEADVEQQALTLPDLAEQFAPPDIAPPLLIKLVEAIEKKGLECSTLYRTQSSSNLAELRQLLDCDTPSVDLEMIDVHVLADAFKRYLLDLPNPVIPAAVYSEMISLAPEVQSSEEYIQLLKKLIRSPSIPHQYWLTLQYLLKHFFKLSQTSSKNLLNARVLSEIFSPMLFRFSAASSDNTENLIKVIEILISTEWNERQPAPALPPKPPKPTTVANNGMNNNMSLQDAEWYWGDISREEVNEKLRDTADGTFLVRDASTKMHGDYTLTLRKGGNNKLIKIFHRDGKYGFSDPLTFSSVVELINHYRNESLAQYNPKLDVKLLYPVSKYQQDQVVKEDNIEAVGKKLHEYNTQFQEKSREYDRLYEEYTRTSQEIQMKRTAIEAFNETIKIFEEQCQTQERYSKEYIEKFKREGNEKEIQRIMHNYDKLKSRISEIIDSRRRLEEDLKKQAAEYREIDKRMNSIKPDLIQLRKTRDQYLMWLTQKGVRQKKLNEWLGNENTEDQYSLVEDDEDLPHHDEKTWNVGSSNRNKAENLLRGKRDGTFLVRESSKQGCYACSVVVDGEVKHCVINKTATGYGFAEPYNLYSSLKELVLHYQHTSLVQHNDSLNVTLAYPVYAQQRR
# T3 sequence (P48736 whole entry): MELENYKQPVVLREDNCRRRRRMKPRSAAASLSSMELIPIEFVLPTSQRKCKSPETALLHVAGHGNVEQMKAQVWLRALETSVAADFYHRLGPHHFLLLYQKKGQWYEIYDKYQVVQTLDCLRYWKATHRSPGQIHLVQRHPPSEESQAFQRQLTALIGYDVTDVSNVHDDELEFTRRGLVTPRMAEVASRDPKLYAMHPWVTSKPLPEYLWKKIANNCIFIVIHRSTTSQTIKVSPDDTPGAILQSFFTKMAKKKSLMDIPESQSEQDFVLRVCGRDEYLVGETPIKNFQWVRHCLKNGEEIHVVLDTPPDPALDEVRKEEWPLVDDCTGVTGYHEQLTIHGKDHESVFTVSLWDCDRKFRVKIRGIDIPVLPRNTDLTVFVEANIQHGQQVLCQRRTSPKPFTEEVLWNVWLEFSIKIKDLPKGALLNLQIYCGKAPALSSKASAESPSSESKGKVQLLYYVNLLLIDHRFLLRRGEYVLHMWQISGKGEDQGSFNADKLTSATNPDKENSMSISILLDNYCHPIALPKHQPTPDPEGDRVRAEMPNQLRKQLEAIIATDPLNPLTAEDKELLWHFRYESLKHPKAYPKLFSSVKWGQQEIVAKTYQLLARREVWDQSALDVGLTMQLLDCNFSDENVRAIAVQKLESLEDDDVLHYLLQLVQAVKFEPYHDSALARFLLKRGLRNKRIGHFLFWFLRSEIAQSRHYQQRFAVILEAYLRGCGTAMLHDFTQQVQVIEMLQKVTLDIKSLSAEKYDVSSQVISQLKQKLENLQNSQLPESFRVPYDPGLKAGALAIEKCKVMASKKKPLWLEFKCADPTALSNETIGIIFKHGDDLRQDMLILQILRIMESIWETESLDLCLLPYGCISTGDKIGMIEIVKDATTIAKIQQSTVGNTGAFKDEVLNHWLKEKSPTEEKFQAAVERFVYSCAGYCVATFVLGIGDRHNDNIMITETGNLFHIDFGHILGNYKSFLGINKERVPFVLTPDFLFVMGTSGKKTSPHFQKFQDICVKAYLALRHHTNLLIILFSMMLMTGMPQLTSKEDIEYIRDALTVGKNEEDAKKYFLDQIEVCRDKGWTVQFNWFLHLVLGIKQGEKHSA
# T4 sequence (O00329 whole entry): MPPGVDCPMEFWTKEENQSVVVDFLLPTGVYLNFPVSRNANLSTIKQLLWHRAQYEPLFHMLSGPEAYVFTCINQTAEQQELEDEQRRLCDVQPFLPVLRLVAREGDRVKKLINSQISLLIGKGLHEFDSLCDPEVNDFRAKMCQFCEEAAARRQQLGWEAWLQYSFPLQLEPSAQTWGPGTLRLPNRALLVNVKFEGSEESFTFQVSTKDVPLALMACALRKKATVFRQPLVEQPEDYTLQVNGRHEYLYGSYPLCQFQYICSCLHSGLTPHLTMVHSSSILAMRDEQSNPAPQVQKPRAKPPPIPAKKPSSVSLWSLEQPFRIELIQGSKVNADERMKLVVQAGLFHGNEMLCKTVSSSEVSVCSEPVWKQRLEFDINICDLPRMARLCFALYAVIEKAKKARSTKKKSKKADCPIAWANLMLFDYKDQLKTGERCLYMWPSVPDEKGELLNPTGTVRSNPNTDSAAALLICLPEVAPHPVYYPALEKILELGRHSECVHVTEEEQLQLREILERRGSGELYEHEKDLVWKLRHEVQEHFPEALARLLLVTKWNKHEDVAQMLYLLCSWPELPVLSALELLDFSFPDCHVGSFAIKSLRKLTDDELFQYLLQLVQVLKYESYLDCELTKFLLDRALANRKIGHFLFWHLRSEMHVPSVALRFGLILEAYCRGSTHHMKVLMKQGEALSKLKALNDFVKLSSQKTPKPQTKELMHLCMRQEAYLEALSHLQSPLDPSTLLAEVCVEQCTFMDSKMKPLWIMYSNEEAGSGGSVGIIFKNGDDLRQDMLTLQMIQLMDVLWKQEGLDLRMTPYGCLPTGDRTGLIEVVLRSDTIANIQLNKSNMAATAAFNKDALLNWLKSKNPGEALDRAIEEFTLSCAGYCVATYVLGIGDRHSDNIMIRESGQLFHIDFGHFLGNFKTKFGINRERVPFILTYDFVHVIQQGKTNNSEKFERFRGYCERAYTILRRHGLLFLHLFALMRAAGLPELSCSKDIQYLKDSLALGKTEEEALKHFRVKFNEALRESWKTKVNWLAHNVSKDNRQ
# T4 sequence (P27986 whole entry partner): as the sequence (P27986 whole entry partner) above
structure (smiles),measurement,setting,value
"O=C1NCCC(c2ccc(Cl)cc2)c2cc(-c3ccncc3)sc21 (single isomer, unassigned) [Compound 25, 4-(4-chlorophenyl)-2-pyridin-4-yl-4,5,6,7-tetrahydro-8H-thieno[2,3-c]azepin-8-one]",PI3Kalpha % inh,PI3Kalpha; at 1.11 μM,3.700%
same,PI3Kbeta % inh,PI3Kbeta; at 1.11 μM,69.800%
same,pIC50,PI3Kbeta,6.00 to 7.00
same,PI3Kgamma % inh,PI3Kgamma; at 1.11 μM,4.500%
same,PI3Kdelta % inh,PI3Kdelta; at 1.11 μM,31.200%
same,VPS34 % ihn,VPS34; at 1.11 μM,10.900%
"CC(=O)Nc1cc(-c2cc3c(s2)C(=O)NCCC3c2ccc(Cl)cc2)ccn1 (centres unmarked) [Compound 1, N-{4-[4-(4-chlorophenyl)-8-oxo-5,6,7,8-tetrahydro-4H-thieno[2,3-c]azepin-2-yl]pyridin-2-yl}acetamide]",inhibition at 1.11 µM,PI3Kalpha,49.8%
same,inhibition at 1.11 µM,PI3Kbeta; at 1.11 μM,100%
same,pIC50,PI3Kbeta,> 7.00
same,inhibition at 1.11 µM,PI3Kgamma,63.4%
same,inhibition at 1.11 µM,PI3Kdelta,103%
same,inhibition at 1.11 µM,VPS34,29.3%
"Clc1ccc(C2CCc3cn[nH]c3-c3sc(-c4ccncc4)cc32)cc1 (centres unmarked) [Compound 6, 6-(4-chlorophenyl)-8-pyridin-4-yl-1,4,5,6-tetrahydrothieno[3′,2′:6,7]cyclohepta[1,2-c]pyrazole]",inhibition at 1.11 µM,PI3Kalpha,27%
same,inhibition at 1.11 µM,PI3Kbeta; at 1.11 μM,97.9%
same,pIC50,PI3Kbeta,> 7.00
same,inhibition at 1.11 µM,PI3Kgamma,14%
same,inhibition at 1.11 µM,PI3Kdelta,70.7%
same,inhibition at 1.11 µM,VPS34,10.1%
"CC(=O)Nc1cc(-c2cc3c(s2)C(=O)CCC3c2ccc(Cl)cc2)ccn1 (centres unmarked) [Compound 7, N-{4-[4-(4-chlorophenyl)-7-oxo-4,5,6,7-tetrahydro-1-benzothien-2-yl]pyridin-2-yl}acetamide]",inhibition at 1.11 µM,PI3Kalpha,20.5%
same,inhibition at 1.11 µM,PI3Kbeta; at 1.11 μM,64.6%
same,pIC50,PI3Kbeta,6.00 to 7.00
same,inhibition at 1.11 µM,PI3Kgamma,6.5%
same,inhibition at 1.11 µM,PI3Kdelta,91.3%
same,inhibition at 1.11 µM,VPS34,9.6%
"CC1(C)CC(=O)c2sc(-c3ccncc3)cc2C1c1ccc(Cl)cc1 (centres unmarked) [Compound 10, 4-(4-chlorophenyl)-5,5-dimethyl-2-pyridin-4-yl-5,6-dihydro-1-benzothiophen-7(4H)-one]",inhibition at 1.11 µM,PI3Kalpha,0.2%
same,inhibition at 1.11 µM,PI3Kbeta; at 1.11 μM,71%
same,pIC50,PI3Kbeta,6.00 to 7.00
same,inhibition at 1.11 µM,PI3Kgamma,6.7%
same,inhibition at 1.11 µM,PI3Kdelta,32.4%
same,inhibition at 1.11 µM,VPS34,0.1%
"Cc1nn2ccccc2c1-c1nc2c(s1)NC(=O)CCC2c1ccc(Cl)cc1 (centres unmarked) [Compound 11, 8-(4-chlorophenyl)-2-(2-methylpyrazolo[1,5-a]pyridin-3-yl)-4,6,7,8-tetrahydro-5H-[1,3]thiazolo[5,4-b]azepin-5-one]",inhibition at 1.11 µM,PI3Kalpha,36%
same,inhibition at 1.11 µM,PI3Kbeta; at 1.11 μM,71.6%
same,pIC50,PI3Kbeta,6.00 to 7.00
same,inhibition at 1.11 µM,PI3Kgamma,5.2%
same,inhibition at 1.11 µM,PI3Kdelta,60.3%
same,inhibition at 1.11 µM,VPS34,-4.2%
"Clc1ccc(C2Cc3cn[nH]c3-c3sc(-c4ccncc4)cc32)cc1 (centres unmarked) [Compound 12, 5-(4-chlorophenyl)-7-pyridin-4-yl-4,5-dihydro-1H-thieno[3,2-g]indazole]",inhibition at 1.11 µM,PI3Kalpha,9.4%
same,inhibition at 1.11 µM,PI3Kbeta; at 1.11 μM,73.2%
same,pIC50,PI3Kbeta,6.00 to 7.00
same,inhibition at 1.11 µM,PI3Kgamma,31%
same,inhibition at 1.11 µM,PI3Kdelta,69%
same,inhibition at 1.11 µM,VPS34,-6%
"O=C1CCCC(O)(c2ccc(Cl)cc2)c2cc(-c3ccncc3)sc21 (centres unmarked) [Compound 15, 4-(4-chlorophenyl)-4-hydroxy-2-pyridin-4-yl-4,5,6,7-tetrahydro-8H-cyclohepta[b]thiophen-8-one]",inhibition at 1.11 µM,PI3Kalpha,3.1%
same,inhibition at 1.11 µM,PI3Kbeta; at 1.11 μM,65%
same,pIC50,PI3Kbeta,6.00 to 7.00
same,inhibition at 1.11 µM,PI3Kgamma,4%
same,inhibition at 1.11 µM,PI3Kdelta,26.4%
same,inhibition at 1.11 µM,VPS34,2%
"CC1=CC(=O)Nc2sc(-c3ccncc3)cc2C1(C)c1ccc(Cl)cc1 (centres unmarked) [Compound 17, 4-(4-chlorophenyl)-4,5-dimethyl-2-pyridin-4-yl-4,8-dihydro-7H-thieno[2,3-b]azepin-7-one]",inhibition at 1.11 µM,PI3Kalpha,12.4%
same,inhibition at 1.11 µM,PI3Kbeta; at 1.11 μM,96.8%
same,pIC50,PI3Kbeta,> 7.00
same,inhibition at 1.11 µM,PI3Kgamma,8.6%
same,inhibition at 1.11 µM,PI3Kdelta,47.9%
same,inhibition at 1.11 µM,VPS34,28.5%
"O/N=C1/CCC(c2ccc(Cl)cc2)c2cc(-c3ccncc3)sc21 (centres unmarked) [Compound 18, (7Z)-4-(4-chlorophenyl)-2-pyridin-4-yl-5,6-dihydro-1-benzothiophen-7(4H)-one oxime]",inhibition at 1.11 µM,PI3Kalpha,18.8%
same,inhibition at 1.11 µM,PI3Kbeta; at 1.11 μM,104%
same,pIC50,PI3Kbeta,> 7.00
same,inhibition at 1.11 µM,PI3Kgamma,21.5%
same,inhibition at 1.11 µM,PI3Kdelta,53.8%
same,inhibition at 1.11 µM,VPS34,-4.1%
"O=C1CCCC(c2ccc(Cl)cc2)c2cc(-c3ccncc3)sc21 (centres unmarked) [Compound 19, 4-(4-chlorophenyl)-2-pyridin-4-yl-4,5,6,7-tetrahydro-8H-cyclohepta[b]thiophen-8-one]",inhibition at 1.11 µM,PI3Kalpha,-0.4%
same,inhibition at 1.11 µM,PI3Kbeta; at 1.11 μM,86.5%
same,pIC50,PI3Kbeta,6.00 to 7.00
same,inhibition at 1.11 µM,PI3Kgamma,8.1%
same,inhibition at 1.11 µM,PI3Kdelta,43.1%
same,inhibition at 1.11 µM,VPS34,-6.8%
"Cc1nn2ccccc2c1-c1nc2c(s1)C(=O)CCC2c1ccc(Cl)cc1 (centres unmarked) [Compound 20, 4-(4-chlorophenyl)-2-(2-methylpyrazolo[1,5-a]pyridin-3-yl)-5,6-dihydro-1,3-benzothiazol-7(4H)-one]",inhibition at 1.11 µM,PI3Kalpha,23.6%
same,inhibition at 1.11 µM,PI3Kbeta; at 1.11 μM,68.2%
same,pIC50,PI3Kbeta,6.00 to 7.00
same,inhibition at 1.11 µM,PI3Kgamma,6.6%
same,inhibition at 1.11 µM,PI3Kdelta,60.4%
same,inhibition at 1.11 µM,VPS34,0.9%
"O=C1CC(c2ccc(Cl)cc2)c2cc(-c3ccncc3)sc21 (centres unmarked) [Compound 23, 4-(4-chlorophenyl)-2-(pyridin-4-yl)-4H-cyclopenta[b]thiophen-6(5H)-one]",inhibition at 1.11 µM,PI3Kalpha,3.1%
same,inhibition at 1.11 µM,PI3Kbeta; at 1.11 μM,92.8%
same,pIC50,PI3Kbeta,6.00 to 7.00
same,inhibition at 1.11 µM,PI3Kgamma,10.9%
same,inhibition at 1.11 µM,PI3Kdelta,23%
same,inhibition at 1.11 µM,VPS34,-2%
O/N=C1\CCC(c2ccc(Cl)cc2)c2cc(-c3ccncc3)sc21 (centres unmarked) [Compound 24],inhibition at 1.11 µM,PI3Kalpha,13.8%
same,inhibition at 1.11 µM,PI3Kbeta; at 1.11 μM,98.1%
same,inhibition at 1.11 µM,PI3Kgamma,16.9%
same,inhibition at 1.11 µM,PI3Kdelta,54.2%
same,inhibition at 1.11 µM,VPS34,-6.9%

# From US8765746B2 (Millennium Pharmaceuticals, Inc., priority 2010, dated 2014)
